{"source": "patent US20240295560A1", "about": "“PANCREATIC CANCER DIAGNOSIS ASSISTANCE METHOD AND PHARMACEUTICAL COMPOUND FOR TREATING PANCREATIC CANCER” (TOKYO METROPOLITAN GERIATRIC HOSPITAL AND INSTITUTE OF …, priority 2020, published 2024)", "key": {"[1]": {"tested_on": "GM2 expression in MIA PaCa-2 cells", "experiment": "GM2 expression and cell clusters in three-dimensional culture with AMP-dNM or MAP kinase inhibitor", "assay_type": "cell-based", "description": "MIA PaCa-2 cells were cultured on ultra-low attachment plates at a concentration of 1.0×10^4 cells/well (24-well plate: Corning) for 7 days. Cell clusters were obtained. Therefore, the number of GM2-positive cells increased in three-dimensional culture. In this example, the effects of AMP-dNM or MAP kinase inhibitor on GM2 expression were examined. Under the same conditions as in Example 5, MIA PaCa-2 cells were three-dimensionally cultured, and the expression of GM2 was measured by adding AMP-dNM (10 μM) which is an inhibitor of glycolipid synthesis, or PD0325901 (1 μM) which is a MAP kinase inhibitor."}, "[2]": {"tested_on": "MIA PaCa-2 cells (GM2-positive vs GM2-negative)", "experiment": "sensitivity of GM2-expressing cells to anticancer drugs, proliferation rate by ATP assay", "assay_type": "cell-based", "conditions": "drug at 10 μM or 100 μM, incubated 3 days, ATP assay (FIG. 6)", "description": "In this example, the sensitivity of GM2-expressing cells to anticancer drugs (gemcitabine, fluorouracil [5-FU], and Abraxane) were examined.\nMIA PaCa-2 cells (3.0×10^3 cells/well) were seeded in 96-well plates. After 1 day, each anticancer drug was added thereto at a concentration of 10 μM or 100 μM. The cells were incubated for 3 days, and the proliferation rate of the cells was measured by ATP assay."}, "[3]": {"conditions": "AMP-dNM 10 μM, three-dimensional culture of MIA PaCa-2 cells (FIG. 8(B))"}}}
{"smiles": "OC[C@@H]1[C@@H](O)[C@H](O)[C@@H](O)CN1CCCCCOCC12CC3CC(CC(C3)C1)C2", "note": "[AMP-dNM, N-(5′-adamantane-1′-yl-methoxy)-pentyl-1-deoxynojirimycin]", "values": [{"measurement": "GM2 expression", "setting": "[1]; AMP-dNM 10 μM, three-dimensional culture of MIA PaCa-2 cells (FIG. 8(A))", "result": "decreased"}, {"measurement": "microvilli in the cell clusters", "setting": "[1]; [3]", "result": "hardly observed"}, {"measurement": "vacuoles in the cell clusters", "setting": "[1]; [3]", "result": "conspicuously observed"}]}
{"smiles": "O=C(NOC[C@H](O)CO)c1ccc(F)c(F)c1Nc1ccc(I)cc1F", "note": "[PD0325901]", "values": [{"measurement": "GM2 expression", "setting": "[1]; PD0325901 1 μM, three-dimensional culture of MIA PaCa-2 cells (FIG. 8(C))", "result": "decreased"}, {"measurement": "size of cell clusters", "setting": "[1]; PD0325901 1 μM, three-dimensional culture of MIA PaCa-2 cells (FIG. 8(D))", "result": "clearly reduced"}]}
{"smiles": "O=c1[nH]cc(F)c(=O)[nH]1", "note": "[fluorouracil [5-FU], fluorouracil]", "values": [{"measurement": "proliferation rate of GM2-positive cells compared with GM2-negative cells", "setting": "[2]", "result": "effective against GM2-positive cells"}]}
{"smiles": "Nc1ccn([C@@H]2O[C@H](CO)[C@@H](O)C2(F)F)c(=O)n1", "note": "[gemcitabine]", "values": [{"measurement": "proliferation rate of GM2-positive cells compared with GM2-negative cells", "setting": "[2]", "result": "effective against GM2-positive cells"}]}
